This is an account of results in patent US8062607B2, “Lens care methods and kits” (Novartis AG, priority 2006, dated 2011).

The nature of data set [1]: Micro testing of dye in Aquify MPS as a stand alone solution. Conditions: dissolved in Aquify MPS. It is filed as cell-based. The text has this: FD&C Blue No 1, Sanolin Blue, and Remazol Blue dissolved in Aquify® MPS (CIBA Vision) are submitted for micro testing as a stand alone solution.
Data set [2] can be described thus: Colorant stability in lens care solution (visible spectrum). Conditions: in Aquify MPS. The format is physicochemical. The method, then: The colorant stability has also been tested for FD&C Blue No 1 in Aquify® MPS stored at 25° and 45° C. for 94 days. […] This gives us a shelf-life estimation based on colorant stability alone of approximately a year for FD&C Blue No 1 in Aquify® MPS. The colorant stability has also been tested for Vitosyn Blue in a lens care solution described above stored at 25° and 45° C. for 52 days. […] This gives a shelf life estimation based on colorant stability alone for approximately 7 months for Vitosyn Blue in the lens care solution.

Regarding `CCN(Cc1cccc(S(=O)(=O)[O-])c1)c1ccc(C(=C2C=CC(=[N+](CC)Cc3cccc(S(=O)(=O)[O-])c3)C=C2)c2ccccc2S(=O)(=O)[O-])cc1.[Na+].[Na+]` [FD&C Blue No 1], the “micro testing as a stand alone solution” value in data set [1] was “passes all micro testing”. Also, the “shelf-life estimation based on colorant stability alone” value in data set [2] is listed as “approximately a year”. In data set [2] (25° and 45° C., 94 days), the “change of visible spectrum from time 0” value is given as “has not changed significantly”.
